Measurements as given in patent publication US20080188540A1, “PHARMACEUTICAL COMPOSITIONS CONTAINING SUBSTITUTED INDOLE ACID DERIVATIVES AS INHIBITORS OF PLASMINOGEN ACTIVATOR INHIBITOR-1 (PAI-1)” (Wyeth, priority 2007, published 2008).
≈ marks a conversion by molar mass, not a printed value. Where “and” joins values, the source holds several entries; their conditions need not be identical. Equal entries are not always repeated. Entries after “also recorded” stand apart in the source; their conditions may differ. Where two headings read alike, the source gives them in different places.

What was measured:
[1] = Bioavailability of three formulations, single oral gavage dose, plasma pharmacokinetics; type: in vivo; settings: Formula C, fasted male dogs, individual dogs and Mean; for Plasma concentration: oral 300 mg/kg
Procedure: Three formulations were evaluated for the bioavilability of [1-(4-tert-butylbenzyl)-5-(3-methylphenyl)-1h-indol-3-yl](oxo)acetic acid in male dogs. Following a single oral (gavage, 300 mg/kg) dose of [1-(4-tert-butylbenzyl)-5-(3-methylphenyl)-1h-indol-3-yl](oxo)acetic acid, blood samples were drawn at 0 (predose), 0.25, 0.5, 1, 2, 3, 4, 6, 8, 10, 12, 24 and 30 hours. The pharmacokinetic parameters, AUC, Cmax, tmax and t1/2, were determined for each dog, and descriptive statistics were calculated for comparison among formulations.
Individual plasma concentrations over time after dosing Formula C are tabulated and plotted in Table 2 and FIG. 2 respectively.

[2] = Solubility profile (free acid in HCl/NaOH solution, centrifugation, supernatant assayed by HPLC); type: physicochemical
Source text: In some embodiments, the [1-(4-tert-Butylbenzyl)-5-(3-methylphenyl)-1H-indol-3-yl](oxo)acetic acid used with the composition of the invention is micronized.

Cc1cccc(-c2ccc3c(c2)c(C(=O)C(=O)O)cn3Cc2ccc(C(C)(C)C)cc2)c1 [[1-(4-tert-Butylbenzyl)-5-(3-methylphenyl)-1H-indol-3-yl](oxo)acetic acid]
Plasma concentration ([1]; 0.25 hours after dose): 2200 ng/mL and 3390 ng/mL and 3290 ng/mL | Plasma concentration ([1]; 0.5 hours after dose): 7500 ng/mL and 10400 ng/mL and 9190 ng/mL | Plasma concentration ([1]; 1 hour after dose): 18100 ng/mL and 21100 ng/mL and 20000 ng/mL | Plasma concentration ([1]; 2 hours after dose): 26300 ng/mL and 34700 ng/mL and 34100 ng/mL | Plasma concentration ([1]; 4 hours after dose): 29300 ng/mL and 31900 ng/mL and 46600 ng/mL | Plasma concentration ([1]; 6 hours after dose): 26900 ng/mL and 30300 ng/mL and 48000 ng/mL | Plasma concentration ([1]; 8 hours after dose): 26500 ng/mL and 24000 ng/mL and 37600 ng/mL | Plasma concentration ([1]; 10 hours after dose): 25300 ng/mL and 40100 ng/mL and 15900 ng/mL and 28200 ng/mL | Plasma concentration ([1]; 12 hours after dose): 19700 ng/mL and 43600 ng/mL and 12400 ng/mL and 22300 ng/mL | Plasma concentration ([1]; 24 hours after dose): 4720 ng/mL and 25900 ng/mL and 2410 ng/mL and 21900 ng/mL | Plasma concentration ([1]; 30 hours after dose): 2610 ng/mL and 15200 ng/mL and 1240 ng/mL and 10600 ng/mL | concentration at 0.25 h ([1]; male, dog, in vivo, po, 300 mg/kg, 0.25 hours after dose): 2330 ng/mL | concentration at 0.5 h ([1]; male, dog, in vivo, po, 300 mg/kg, 0.5 hours after dose): 8190 ng/mL | concentration at 1 h ([1]; male, dog, in vivo, po, 300 mg/kg, 1 hour after dose): 16700 ng/mL | concentration at 2 h ([1]; male, dog, in vivo, po, 300 mg/kg, 2 hours after dose): 30000 ng/mL | concentration at 4 h ([1]; male, dog, in vivo, po, 300 mg/kg, 4 hours after dose): 43000 ng/mL | concentration at 6 h ([1]; male, dog, in vivo, po, 300 mg/kg, 6 hours after dose): 39400 ng/mL | concentration at 8 h ([1]; male, dog, in vivo, po, 300 mg/kg, 8 hours after dose): 31900 ng/mL | solubility enhancement ([2]; 2% Tween80/0.5% methylcellulose solution versus water): 26.000 fold | solubility ([2]; 2% Tween80/0.5% methylcellulose solution, pH 3.5, aqueous with cosolvent or surfactant or cyclodextrin, read-out: solubility): 580 µg/mL (≈ 1360 µM) | solubility ([2]; aqueous HCl/NaOH solution, aqueous buffer, thermodynamic from solid, in the ionized form (so in the source), read-out: aqueous solubility): ~0.25 µg/mL (≈ 0.588 µM) | pH-solubility profile ([2]; free acid in HCl/NaOH solution, 24 hours equilibration (2 hours for pH<4)): Above pH 4, solubility increases with increasing pH up to pH˜8; also recorded: Above pH 8, solubility decreases due to precipitation of the sodium salt | aqueous solubility ([2]; upon ionization in aqueous media): approximately 24 uG/mL | solubility at 24 h ([2]; water, thermodynamic from solid, neutral pH 6.9): 24 µg/mL (≈ 56.4 µM)
